These results are taken from PMC11433679, “Synthesis, Characterization, and Biological Evaluation of N-Methyl Derivatives of Norbelladine” (Molecules, 2024).

The term EC50 denotes the concentration giving half of the maximal effect. A word on the inhibition: it is the change of the read-out against control, counted positive when it falls. A word on the IC50: it is the concentration at which inhibition is half-maximal. As a reminder, the CC50 is the concentration giving 50% cytotoxicity.

SMILES strings stand for the structures. Values joined by “and” are separate entries in the source; they are usually repeats but may differ in a detail not shown here. Equal entries are not always repeated. Some results are limits rather than exact numbers.

For one data set, the system named is AChE. Set-up: method as in earlier work. The conditions noted are these: ref 19 (Vaněčková et al.); cited from earlier work.
Data set [1] deals with human coronavirus OC43 (HCoV-OC43). As to the kind of experiment: Antiviral assay, HCoV-OC43 replication in HCT-8 cells (flow cytometry). In kind it is cell-based, human betacoronavirus OC43. The conditions noted are these: for EC50: Betacoronavirus 1, OC43, HCT-8, 72 h, read-out: EC50 OC-43; for SI OC-43 (selectivity index, ratio CC50/EC50): CC50 HCT-8 / EC50 OC-43. A general note: In flow cytometry, cells or beads pass a laser one at a time.

For the next data set, the system named is pseudotyped HIV-1. Kind of data set: microbe, parasite or virus in culture. In kind it is cell-based, human immunodeficiency virus (HIV)-1. To be noted: for SI HIV-1 (selectivity index, ratio CC50/EC50): CC50 THP-1 / EC50 HIV-1; for EC50: Human immunodeficiency virus 1, THP-1, 72 h, read-out: EC50 HIV-1.
A further data set deals with dengue virus (DENV). As to the kind of experiment: microbe, parasite or virus in culture. Format: cell-based. To be noted: for SI DENV (selectivity index, ratio CC50/EC50): CC50 Huh7 / EC50 DENV; for EC50: Dengue virus, Huh-7, 72 h, DENVGFP in Huh7 cells, MOI 0.1, 3 days.
The target in data set [2] is T1, acetylcholinesterase (AChE) (Electrophorus electricus, UniProt O42275).
T1 construct: purchased Abcam ab138871
As to the kind of experiment: Acetylcholinesterase inhibition, colorimetric (DTNB, acetylthiocholine substrate). Format: biochemical, electric eel. To be noted: for inhibition at 500 µM: highest tested concentration; for IC50: Nd = >500 μM. On the procedure:
(§1) Pharmacological properties specific to Alzheimer’s disease (AD) were tested on acetylcholinesterases (AChEs) from electric eels and butyrylcholinesterase (BuChE) from equine species using a colorimetric kit (ab138871, Abcam, Cambridge, UK), which measures enzyme activity and inhibition. The reaction was carried out in a final volume of 100 µL in 96-well microplates. […] A 5 µL reaction mixture containing equal amounts of acetylthiocholine/butyrylthiocholine (20X) and DTNB (20X) was then added to each well. Subsequently, the enzyme solution was added to a final concentration of 2 U/mL, and absorbance was measured at 412 nm in kinetic mode for 10 min using a microplate reader (Synergy H1, Biotek, Dorval, QC, Canada). DTNB (Bis(3-carboxy-4-nitrophenyl) disulfide, Ellman’s Reagent), acetylthiocholine iodide, and butyrylthiocholine iodide were obtained from Sigma-Aldrich (Oakville, ON, Canada). Galanthamine (50–0.05 µM) and rivastigmine (400–0.4 µM) were used as positive controls for the AChE and BuChE assays, respectively. Compounds showing inhibition during preliminary screenings were selected for further IC50 value assessment using serially diluted concentrations. All experiments were performed at least twice. Inhibition was calculated using the formula [24]:I = 100 × (1 − ΔAi/ΔA0), where ΔAi is the difference in absorbance between two time points in the presence of the inhibitor, and ΔA0 is the difference in absorbance between two-time points in the presence of DMSO or an appropriate solvent.

The target in data set [3] is butyrylcholinesterase (BuChE) (Equus caballus, UniProt P81908). As to the kind of experiment: Butyrylcholinesterase inhibition, colorimetric (DTNB, butyrylthiocholine substrate). In kind it is biochemical, equine. The conditions noted are these: for inhibition at 500 µM: highest tested concentration; for IC50: butyrylthiocholine substrate; for fold increase in BuChE inhibition by N-methylation compared to non-N-methylated control: ratio of IC50 values. On the procedure: as §1

The nature of data set [4]: Cytotoxicity assay (Cell-Titer GLO, ATP levels, 72 h). In kind it is cell-based. To be noted: human; HCT-8 cells, 72 h treatment, 4–500 µM. The text has this: (§2) The human hepatocarcinoma Huh7 cell line (CVCL_0336) was maintained in Dulbecco’s Modified Eagle Medium (DMEM) supplemented with 10% fetal bovine serum (FBS) and 1% penicillin/streptomycin solution (PS, from GIBCO, Fisher Scientific, Toronto, ON, Canada). The human leukemia monocytic THP-1 (CVCL_0006) and adenocarcinoma HCT-8 cell lines (CVCL_2478) were maintained in Roswell Park Memorial Institute (RPMI) medium supplemented with 10% FBS or horse serum, respectively, and 1% PS. All reagents and antibiotics were purchased from GIBCO, Fisher Scientific, Toronto, ON, Canada). Cells were kept in an incubator at 37 °C and 5% CO2.
(§3) In total, 10 × 10^3 Huh7 cells/well, or 5 × 10^4 THP-1 or HCT-8 cells/well were plated in 96-well plates and incubated at 37 °C and 5% CO2. Compounds (4–500 µM, 2-fold dilutions) were added the next day and cytotoxicity was assessed 72 h later by measuring ATP levels with the Cell-Titer GLO assay kit (Promega, Madison, WI, USA). Cell-Titer GLO reagent was added to the plates previously equilibrated to room temperature for 30 min. Plates were mixed for 2 min and incubated for 10 min at room temperature. The luminescence signal was measured with a microplate reader (Synergy H1, Biotek, Dorval, QC, Canada). Viability percentage was calculated as the ratio of the signal of cells exposed to compounds to the signal of cells exposed to solvent (methanol). All experiments were performed at least twice. Median cytotoxic concentrations (CC50) were calculated using GraphPad prism 10.0.2 (GraphPad Software, San Diego, CA, USA).

In another data set the test system is Huh7 cells. Described as above. Format: cell-based, human. The conditions noted are these: 72 h treatment, 4–500 µM.
Text: as §2, §3

Experiment in data set [5]: as above
In kind it is cell-based, human. To be noted: human, 72 h treatment, 4–500 µM.
Text: as §2, §3

Another data set concerns THP-1 cells. The data set is described as above. In kind it is cell-based, human. To be noted: 72 h treatment, 4–500 µM.
Text: as §2, §3

T1 sequence (O42275 24-633): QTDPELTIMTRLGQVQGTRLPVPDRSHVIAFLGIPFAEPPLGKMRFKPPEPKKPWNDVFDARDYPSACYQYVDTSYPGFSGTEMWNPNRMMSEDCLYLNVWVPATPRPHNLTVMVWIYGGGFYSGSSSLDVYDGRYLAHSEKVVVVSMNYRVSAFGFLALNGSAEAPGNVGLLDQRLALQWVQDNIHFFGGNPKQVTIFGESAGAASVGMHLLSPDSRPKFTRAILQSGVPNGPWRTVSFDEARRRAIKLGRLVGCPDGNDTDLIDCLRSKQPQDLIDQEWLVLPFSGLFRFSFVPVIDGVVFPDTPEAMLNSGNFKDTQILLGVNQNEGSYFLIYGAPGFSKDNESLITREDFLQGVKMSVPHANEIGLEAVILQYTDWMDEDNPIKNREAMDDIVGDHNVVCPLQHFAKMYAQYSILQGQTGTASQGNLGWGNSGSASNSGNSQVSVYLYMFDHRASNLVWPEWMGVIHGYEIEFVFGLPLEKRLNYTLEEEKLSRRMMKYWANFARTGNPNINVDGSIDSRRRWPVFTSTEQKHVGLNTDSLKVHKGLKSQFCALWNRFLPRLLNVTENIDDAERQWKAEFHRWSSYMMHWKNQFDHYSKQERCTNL
Sequence of butyrylcholinesterase (BuChE) (P81908 whole entry): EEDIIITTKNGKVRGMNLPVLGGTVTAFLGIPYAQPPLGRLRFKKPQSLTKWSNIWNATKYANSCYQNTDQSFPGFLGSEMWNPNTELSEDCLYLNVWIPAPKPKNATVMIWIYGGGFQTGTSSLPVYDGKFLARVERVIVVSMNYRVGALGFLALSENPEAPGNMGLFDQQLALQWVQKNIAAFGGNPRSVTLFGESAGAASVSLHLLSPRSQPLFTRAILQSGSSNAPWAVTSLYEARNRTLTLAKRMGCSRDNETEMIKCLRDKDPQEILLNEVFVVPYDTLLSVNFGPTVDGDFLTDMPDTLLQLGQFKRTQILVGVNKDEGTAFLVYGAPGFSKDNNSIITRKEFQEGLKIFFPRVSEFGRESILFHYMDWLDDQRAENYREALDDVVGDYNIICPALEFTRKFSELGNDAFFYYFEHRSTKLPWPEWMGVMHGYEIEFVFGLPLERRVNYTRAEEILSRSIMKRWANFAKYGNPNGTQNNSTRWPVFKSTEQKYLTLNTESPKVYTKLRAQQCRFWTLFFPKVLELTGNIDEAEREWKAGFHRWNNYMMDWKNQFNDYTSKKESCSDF

Take `COc1ccc(CCN(C)Cc2ccc(O)c(OC)c2)cc1` [4′-O-demethylbelladine]: the anti-AChE activity entry with AChE is “weak”.

Consider `CN(CCc1ccc(O)cc1)Cc1ccc(O)c(O)c1` [N-methylnorbelladine], for which the figures for the half-maximal effective concentration (EC50) (in data set [1]; in the data set with pseudotyped HIV-1; in the data set on dengue virus (DENV)) were 66.8 µM, 42.3 µM and 67.7 µM, respectively. In data set [1], the “SI OC-43 (selectivity index, ratio CC50/EC50)” value was >7.49. For the same molecule, the “SI HIV-1 (selectivity index, ratio CC50/EC50)” value with pseudotyped HIV-1 was found to be 5.36. For the same molecule, the “SI DENV (selectivity index, ratio CC50/EC50)” value in the data set on dengue virus (DENV) is reported as 5.70. In addition, the inhibition at 500 µM in data set [2] was determined as 31.2%; in data set [3] it was 96%. Also, the IC50 is > 500 µM in data set [2]; 3.94 µM and 4 µM in data set [3]. Also, in data set [3], the “fold increase in BuChE inhibition by N-methylation compared to non-N-methylated control” value is listed as 2 fold. For the same molecule, the values for the half-maximal cytotoxic concentration (CC50) at 72 h in data set [4], in data set [5] (Huh7 cells) and in [5] (THP-1 cells) were > 500 µM, 386 µM and 227 µM, respectively. The 50% cytotoxic concentration (CC50) amounted to 386 µM in the data set on Huh7 cells and 227 µM in the data set with THP-1 cells.

Consider `Oc1ccc(CCNCc2ccc(O)c(O)c2)cc1` [Norbelladine], for which the 50% effective concentration (EC50) in [1] was 55.7 µM; in the data set on pseudotyped HIV-1 it was 66.9 µM; in the data set with dengue virus (DENV) it was 70.6 µM. For the same molecule, the “SI OC-43 (selectivity index, ratio CC50/EC50)” value in data set [1] is >8.98. The “SI HIV-1 (selectivity index, ratio CC50/EC50)” value in the data set with pseudotyped HIV-1 is on record as 2.22. In addition, the “SI DENV (selectivity index, ratio CC50/EC50)” value with dengue virus (DENV) came to 3.30. Also, the inhibition at 500 µM in data set [2] worked out at 24.5%; in data set [3] it was 95%. The half-maximal inhibitory concentration (IC50) in data set [2] was > 500 µM; in [3] it was 8 µM. The CC50 at 72 h is > 500 µM in [4], 233 µM in [5] (Huh7 cells) and 148 µM in data set [5] (THP-1 cells). Moreover, the figures for the half-maximal cytotoxic concentration (CC50) with Huh7 cells and with THP-1 cells were 233 µM and 148 µM, respectively.

With `COc1ccc(CN(C)CCc2ccc(O)cc2)cc1O` [4′-O,N-dimethylnorbelladine, 5-(((4-hydroxyphenethyl)(methyl)amino)methyl)-2-methoxyphenol], in [1], the EC50 worked out at 42.4 µM and the “SI OC-43 (selectivity index, ratio CC50/EC50)” value is >11.80. In addition, in the data set on pseudotyped HIV-1, the “SI HIV-1 (selectivity index, ratio CC50/EC50)” value is >4.06 and the 50% effective concentration (EC50) came out at 123 µM. In the data set on dengue virus (DENV), the “SI DENV (selectivity index, ratio CC50/EC50)” value was 4.81 and the response was half-maximal at 95.8 µM (EC50). Further, in [2], the inhibition at 500 µM was found to be 43.6% and the IC50 is > 500 µM. In data set [3], the inhibition at 500 µM turned out to be 99%, the IC50 was 10.4 µM and the “fold increase in BuChE inhibition by N-methylation compared to non-N-methylated control” value is 1.5 fold. For the same molecule, the 50% cytotoxic concentration (CC50) at 72 h in data set [4] was > 500 µM. The CC50 at 72 h in data set [5] (Huh7 cells) was 460 µM. Moreover, the CC50 at 72 h in [5] (THP-1 cells) is > 500 µM.

Turning to `COc1cc(CNCCc2ccc(O)cc2)ccc1O` [3′-O-methylnorbelladine], the 50% effective concentration (EC50) in [1] was 74.5 µM; in the data set on pseudotyped HIV-1 it was 177 µM; in the data set with dengue virus (DENV) it was 138 µM. For the same molecule, the “SI OC-43 (selectivity index, ratio CC50/EC50)” value in data set [1] is reported as >6.71. In addition, the “SI HIV-1 (selectivity index, ratio CC50/EC50)” value in the data set on pseudotyped HIV-1 is recorded as >2.83. Further, the “SI DENV (selectivity index, ratio CC50/EC50)” value in the data set with dengue virus (DENV) is recorded as >3.62. Also, the inhibition at 500 µM in data set [2] was found to be 10%; in [3] it was 96%. The 50% inhibitory concentration (IC50) was > 500 µM in [2] and 27.5 µM in data set [3]. Also, the CC50 at 72 h in data set [4], in data set [5] (Huh7 cells) and in data set [5] (THP-1 cells) was > 500 µM in each case.

On to `COc1ccc(CNCCc2ccc(O)cc2)cc1O` [4′-O-methylnorbelladine], for which the EC50 in data set [1] turned out to be 63 µM; in the data set on pseudotyped HIV-1, 163 µM; with dengue virus (DENV), 79.6 µM. Besides, the “SI OC-43 (selectivity index, ratio CC50/EC50)” value in data set [1] is recorded as >7.93. Further, the “SI HIV-1 (selectivity index, ratio CC50/EC50)” value in the data set on pseudotyped HIV-1 is given as >3.06. Also, the “SI DENV (selectivity index, ratio CC50/EC50)” value in the data set on dengue virus (DENV) is listed as >6.28. For the same molecule, the inhibition at 500 µM was 33.6% in [2] and 99% in data set [3]. Moreover, the concentration for half-maximal inhibition (IC50) in [2] was > 500 µM; in data set [3], 16.1 µM. Moreover, the CC50 at 72 h in [4], in data set [5] (Huh7 cells) and in data set [5] (THP-1 cells) was > 500 µM each time.

In the case of `COc1ccc(CNCCc2ccc(O)cc2)cc1OC` [3′,4′-O-dimethylnorbelladine], the concentration giving a half-maximal response (EC50) in [1] was determined as 84.7 µM; in the data set with pseudotyped HIV-1 it was 190 µM; with dengue virus (DENV), 137 µM. In data set [1], the “SI OC-43 (selectivity index, ratio CC50/EC50)” value is given as >5.91. In addition, in the data set with pseudotyped HIV-1, the “SI HIV-1 (selectivity index, ratio CC50/EC50)” value is given as >2.63. Further, the “SI DENV (selectivity index, ratio CC50/EC50)” value in the data set with dengue virus (DENV) is >3.64. Moreover, the inhibition at 500 µM is 37% in [2] and 94% in data set [3]. Further, the results for the IC50 in [2] and in [3] were > 500 µM and 108 µM, respectively. The CC50 at 72 h in [4], in [5] (Huh7 cells) and in [5] (THP-1 cells) was > 500 µM each time.
